Experiment [1] deals with T1, Estrogen-related receptor gamma (Homo sapiens, UniProt P62508).
T1 sequence (P62508 whole entry): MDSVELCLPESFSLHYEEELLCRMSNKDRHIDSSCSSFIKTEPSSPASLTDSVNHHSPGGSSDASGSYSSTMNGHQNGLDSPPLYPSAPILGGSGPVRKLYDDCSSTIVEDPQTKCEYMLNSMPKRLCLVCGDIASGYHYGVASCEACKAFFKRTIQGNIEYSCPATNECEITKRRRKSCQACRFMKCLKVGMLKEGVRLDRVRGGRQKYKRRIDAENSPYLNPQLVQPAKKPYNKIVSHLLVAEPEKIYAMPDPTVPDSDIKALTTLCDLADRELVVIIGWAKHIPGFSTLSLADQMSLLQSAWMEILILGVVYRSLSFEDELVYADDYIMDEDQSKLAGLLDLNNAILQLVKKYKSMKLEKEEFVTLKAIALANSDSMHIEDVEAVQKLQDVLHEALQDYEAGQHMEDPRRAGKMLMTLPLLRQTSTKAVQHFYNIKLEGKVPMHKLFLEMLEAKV
Briefly: Displacement of [3H]4-OHT from ERRgamma at 3 uM.

Experiment [2] concerns the target T1, Estrogen-related receptor gamma.
The species named for the next experiment is Homo sapiens. Briefly: Selectivity for ERRgamma over ERalpha relative to 4-hydroxytamoxifen.
Another experiment addresses T2, Estrogen receptor (Homo sapiens, UniProt P03372).
T2 sequence (P03372 whole entry): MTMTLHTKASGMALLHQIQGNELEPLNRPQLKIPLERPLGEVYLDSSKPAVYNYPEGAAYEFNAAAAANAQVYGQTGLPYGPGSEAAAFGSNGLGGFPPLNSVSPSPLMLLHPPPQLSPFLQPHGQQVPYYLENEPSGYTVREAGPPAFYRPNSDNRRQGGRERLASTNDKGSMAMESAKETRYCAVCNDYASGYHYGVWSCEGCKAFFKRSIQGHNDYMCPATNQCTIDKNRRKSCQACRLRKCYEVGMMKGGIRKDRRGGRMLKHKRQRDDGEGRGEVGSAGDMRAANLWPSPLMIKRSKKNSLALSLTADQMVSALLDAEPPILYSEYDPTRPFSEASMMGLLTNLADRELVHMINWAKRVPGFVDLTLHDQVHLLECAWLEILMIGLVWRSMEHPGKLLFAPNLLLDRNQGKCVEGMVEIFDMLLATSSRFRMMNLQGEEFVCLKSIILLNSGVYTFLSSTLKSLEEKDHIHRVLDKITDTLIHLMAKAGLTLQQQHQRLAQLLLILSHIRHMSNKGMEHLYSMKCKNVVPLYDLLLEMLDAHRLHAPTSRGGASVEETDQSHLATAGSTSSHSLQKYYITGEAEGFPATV

The IC50 is the point on the concentration scale where inhibition reaches its midpoint. Read a low IC50 as greater potency in that assay. As for `CN(C)CCC/C(=C(\c1ccc(O)cc1)c1ccc(OCCN(C)C)cc1)c1ccccc1`, in experiment [1], the 50% inhibitory concentration (IC50) result is “Not Active”. Compound `CN(C)CCOc1ccc(/C(=C(/CCCC#N)c2ccccc2)c2ccc(O)cc2)cc1` gave a concentration for half-maximal inhibition (IC50) in experiment [2] of 200 nM.

Turning to `CSCCC/C(=C(\c1ccc(O)cc1)c1ccc(OCCN(C)C)cc1)c1ccccc1`, inhibition in experiment [2] was half-maximal at 1000 nM (IC50). Still for that read-out and setting: under `CN(C)CCOc1ccc(/C(=C(/CCC#N)c2ccccc2)c2ccc(O)cc2)cc1` stands 1300 nM.

On to `CC(=O)NCCC/C(=C(\c1ccc(O)cc1)c1ccc(OCCN(C)C)cc1)c1ccccc1`, for which the half-inhibitory concentration (IC50) result in experiment [1] is “Not Active”. With `CN(C)CCOc1ccc(/C(=C(/CCN=[N+]=[N-])c2ccccc2)c2ccc(O)cc2)cc1`, in the experiment filed under Homo sapiens, the Ratio IC50 worked out at 1.6. For the same compound, the IC50 was found to be 1 nM at Estrogen receptor and 5 nM in experiment [2]. `CN(C)CCOc1ccc(/C(=C(/CCCl)c2ccccc2)c2ccc(O)cc2)cc1` [4-HYDROXYTORMIFENE]: 13 nM corresponded to half-maximal inhibition in experiment [2] (IC50). `CN(C)CCOc1ccc(/C(=C(/CCCCl)c2ccccc2)c2ccc(O)cc2)cc1` registered an IC50 in experiment [2] of 130 nM.

The compound `CN(C)CCOc1ccc(/C(=C(/CCCCO)c2ccccc2)c2ccc(O)cc2)cc1` had a half-maximal inhibitory concentration (IC50) in experiment [2] of 790 nM. Consider `CN(C)CCOc1ccc(/C(=C(/CCCN=[N+]=[N-])c2ccccc2)c2ccc(O)cc2)cc1`, for which the IC50 in experiment [2] amounted to 160 nM. Regarding `CN(C)CCOc1ccc(/C(=C(/CCCC(=O)O)c2ccccc2)c2ccc(O)cc2)cc1`, the IC50 result in experiment [1] is given as “Not Active”. In the case of `CNCCC/C(=C(\c1ccc(O)cc1)c1ccc(OCCN(C)C)cc1)c1ccccc1`, the IC50 entry in experiment [1] is on record as “Not Active”.

The record behind these values is ChEMBL document CHEMBL1149464, “Structure-guided synthesis of tamoxifen analogs with improved selectivity for the orphan ERRgamma” (Bioorg Med Chem Lett, 2006).
